Legend:
Conditions in all cases: treatment: drug + dasatinib (fixed dose, not stated); 5 days
786-O [1] = test: minimum viability across doses, drug + dasatinib, relative to DMSO (fraction); higher = less growth inhibition
Protocol: (§1)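 Primary HTS combination arm: 8 RCC cell lines treated with 8 doses (up to 10 uM) of each library drug plus a fixed dose of dasatinib (dose not stated) for 5 days; viability read by CellTiter-Glo and normalised to DMSO. GI50 was fitted with XLfit, AUC is the area under the dose-response curve, and minimum viability is the lowest fraction of DMSO viability across doses.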

ACHN [2] = test: as above
Protocol: as §1

UO-31 [3] = test: as above
Protocol: as §1

A498 [4] = test: as above
Protocol: as §1

769-P [5] = test: as above
Protocol: as §1

SN12C [6] = test: as above
Protocol: as §1

CAKI-1 [7] = test: as above
Protocol: as §1

TK-10 [8] = test: as above
Protocol: as §1

786-O [9] = test: GI50 of drug in presence of dasatinib; higher = less potent
Protocol: as §1

ACHN [10] = test: as above
Protocol: as §1

UO-31 [11] = test: as above
Protocol: as §1

A498 [12] = test: as above
Protocol: as §1

769-P [13] = test: as above
Protocol: as §1

SN12C [14] = test: as above
Protocol: as §1

CAKI-1 [15] = test: as above
Protocol: as §1

TK-10 [16] = test: as above
Protocol: as §1

786-O [17] = test: AUC of dose-response viability curve, drug + dasatinib, normalised to DMSO (arbitrary (AUC of normalised viability)); higher = less growth inhibition
Protocol: as §1

ACHN [18] = test: as above
Protocol: as §1

UO-31 [19] = test: as above
Protocol: as §1

A498 [20] = test: as above
Protocol: as §1

769-P [21] = test: as above
Protocol: as §1

SN12C [22] = test: as above
Protocol: as §1

CAKI-1 [23] = test: as above
Protocol: as §1

TK-10 [24] = test: as above
Protocol: as §1

Structure (SMILES)	GI50 of drug (786-O [9])	GI50 of drug (ACHN [10])	minimum viability across doses (786-O [1])	minimum viability across doses (ACHN [2])	minimum viability across doses (UO-31 [3])	minimum viability across doses (A498 [4])	minimum viability across doses (769-P [5])	minimum viability across doses (SN12C [6])	minimum viability across doses (CAKI-1 [7])	minimum viability across doses (TK-10 [8])	GI50 of drug (UO-31 [11])	GI50 of drug (A498 [12])	GI50 of drug (769-P [13])	GI50 of drug (SN12C [14])	GI50 of drug (CAKI-1 [15])	GI50 of drug (TK-10 [16])	AUC of dose-response viability curve (786-O [17])	AUC of dose-response viability curve (ACHN [18])	AUC of dose-response viability curve (UO-31 [19])	AUC of dose-response viability curve (A498 [20])	AUC of dose-response viability curve (769-P [21])	AUC of dose-response viability curve (SN12C [22])	AUC of dose-response viability curve (CAKI-1 [23])	AUC of dose-response viability curve (TK-10 [24])
O=C(Nc1ccc(OC(F)(F)F)cc1)c1sccc1NCc1ccnc2ccccc12 [OSI-930] + Cc1nc(Nc2ncc(C(=O)Nc3c(C)cccc3Cl)s2)cc(N2CCN(CCO)CC2)n1 [dasatinib]	4480 nM	2350 nM	0.32	0.129	0.0216	0.685	0.24	0.174	0.136	0.395	4590 nM	> 10000 nM	3090 nM	6210 nM	3170 nM	6520 nM	2.41	2.07	3.25	3.69	2.23	2.57	2.23	2.71
Cc1nc(NC(=O)N2CCC[C@H]2C(N)=O)sc1-c1ccnc(C(C)(C)C(F)(F)F)c1 [BYL719] + Cc1nc(Nc2ncc(C(=O)Nc3c(C)cccc3Cl)s2)cc(N2CCN(CCO)CC2)n1 [dasatinib]	69.8 nM	11.6 nM	0.114	0.242	0.0931	0.54	0.393	0.407	0.162	0.305	5560 nM	> 10000 nM	3680 nM	> 10000 nM	1720 nM	2790 nM	1.56	1.45	3.72	3.24	2.29	2.23	2.14	2.15
O=C(O)[C@]1(Cc2cccc(Nc3nccs3)n2)CC[C@@H](Oc2cccc(Cl)c2F)CC1 [MK-5108 (VX-689)] + Cc1nc(Nc2ncc(C(=O)Nc3c(C)cccc3Cl)s2)cc(N2CCN(CCO)CC2)n1 [dasatinib]	105 nM	40.1 nM	0.00534	0.227	0.37	0.339	0.202	0.174	0.216	0.372	4080 nM	1990 nM	1360 nM	944 nM	355 nM	1480 nM	1.07	1.51	3.91	2.89	2.18	1.96	1.86	2.14
COc1ccc(-c2ccc3ncc4c(c3c2)n(-c2ccc(N3CCNCC3)c(C(F)(F)F)c2)c(=O)n4C)cn1.O=C(O)/C=C\C(=O)O [NVP-BGT226] + Cc1nc(Nc2ncc(C(=O)Nc3c(C)cccc3Cl)s2)cc(N2CCN(CCO)CC2)n1 [dasatinib]	5.3 nM	4.38 nM	0.00462	0.00153	0.0107	0.0127	0.00834	0.00253	0.00249	0.00345	14.2 nM	20 nM	15.9 nM	6.06 nM	10.1 nM	12.2 nM	0.402	0.453	0.779	0.972	0.87	0.601	0.631	0.725
Cc1nc(N)sc1-c1ccnc(Nc2ccc(N3CCOCC3)cc2)n1 [CYC116] + Cc1nc(Nc2ncc(C(=O)Nc3c(C)cccc3Cl)s2)cc(N2CCN(CCO)CC2)n1 [dasatinib]	482 nM	137 nM	0.0032	0.0722	0.0118	0.381	0.074	0.0981	0.00751	0.0917	2020 nM	6520 nM	1020 nM	831 nM	332 nM	640 nM	1.74	1.35	2.86	3.01	1.92	2	1.45	1.96
CS(=O)(=O)O.N#CC1(c2ccc(NC(=O)c3cccnc3NCc3ccncc3)cc2)CCCC1 [Apatinib (YN968D1)] + Cc1nc(Nc2ncc(C(=O)Nc3c(C)cccc3Cl)s2)cc(N2CCN(CCO)CC2)n1 [dasatinib]	> 10000 nM	6530 nM	0.624	0.389	0.988	0.874	0.49	0.656	0.572	0.636	> 10000 nM	> 10000 nM	9470 nM	> 10000 nM	> 10000 nM	> 10000 nM	2.64	2.18	4.78	3.76	2.43	2.45	2.39	2.5
Cc1[nH]c(/C=C2\C(=O)Nc3ccccc32)c(C)c1CCC(=O)O [TSU-68] + Cc1nc(Nc2ncc(C(=O)Nc3c(C)cccc3Cl)s2)cc(N2CCN(CCO)CC2)n1 [dasatinib]	> 10000 nM	> 10000 nM	0.61	0.512	1.07	0.699	0.66	0.609	0.595	0.74	> 10000 nM	> 10000 nM	> 10000 nM	> 10000 nM	> 10000 nM	> 10000 nM	2.39	1.94	1.95	3.61	2.42	2.32	2.29	2.77

Further lines, with some results ahead:

GI50 of drug (786-O [9])	GI50 of drug (ACHN [10])	Structure (SMILES)	minimum viability across doses (786-O [1])	minimum viability across doses (ACHN [2])	minimum viability across doses (UO-31 [3])	minimum viability across doses (A498 [4])	minimum viability across doses (769-P [5])	minimum viability across doses (SN12C [6])	minimum viability across doses (CAKI-1 [7])	minimum viability across doses (TK-10 [8])	GI50 of drug (UO-31 [11])	GI50 of drug (A498 [12])	GI50 of drug (769-P [13])	GI50 of drug (SN12C [14])	GI50 of drug (CAKI-1 [15])	GI50 of drug (TK-10 [16])	AUC of dose-response viability curve (786-O [17])	AUC of dose-response viability curve (ACHN [18])	AUC of dose-response viability curve (UO-31 [19])	AUC of dose-response viability curve (A498 [20])	AUC of dose-response viability curve (769-P [21])	AUC of dose-response viability curve (SN12C [22])	AUC of dose-response viability curve (CAKI-1 [23])	AUC of dose-response viability curve (TK-10 [24])
> 10000 nM	> 10000 nM	C[C@@H](N)[C@H]1CC[C@H](C(=O)Nc2ccncc2)CC1.Cl.Cl + Cc1nc(Nc2ncc(C(=O)Nc3c(C)cccc3Cl)s2)cc(N2CCN(CCO)CC2)n1 [dasatinib]	0.699	0.673	0.697	0.877	0.588	0.657	0.584	0.754	> 10000 nM	> 10000 nM	> 10000 nM	> 10000 nM	> 10000 nM	> 10000 nM	2.82	2.61	3.41	3.4	2.34	2.5	2.31	2.98
> 10000 nM	20 nM	O=c1cc(-c2cccc3c2Sc2ccccc2S3)oc(N2CCOCC2)c1 + Cc1nc(Nc2ncc(C(=O)Nc3c(C)cccc3Cl)s2)cc(N2CCN(CCO)CC2)n1 [dasatinib]	0.561	0.449	0.7	0.747	0.635	0.659	0.31	0.682	> 10000 nM	> 10000 nM	> 10000 nM	> 10000 nM	4310 nM	> 10000 nM	2.43	1.86	3.22	3.16	2.38	2.48	2.12	2.57
343 nM	334 nM	Nc1nc(Nc2ccc(S(N)(=O)=O)cc2)nn1C(=O)c1c(F)cccc1F + Cc1nc(Nc2ncc(C(=O)Nc3c(C)cccc3Cl)s2)cc(N2CCN(CCO)CC2)n1 [dasatinib]	0.00366	0.00508	0.00972	0.269	0.0371	0.142	0.0394	0.623	4120 nM	4680 nM	3160 nM	3690 nM	1250 nM	> 10000 nM	1.7	1.56	3.26	2.82	2.24	2.48	1.99	2.57
492 nM	136 nM	Cc1cnc(Nc2ccc(OCCN3CCCC3)cc2)nc1Nc1cccc(S(=O)(=O)NC(C)(C)C)c1 + Cc1nc(Nc2ncc(C(=O)Nc3c(C)cccc3Cl)s2)cc(N2CCN(CCO)CC2)n1 [dasatinib]	0.0103	0.00238	0.00873	0.0831	0.0211	0.00825	0.00319	0.00313	913 nM	3500 nM	1340 nM	949 nM	376 nM	357 nM	1.73	1.25	3.1	3.11	2.06	1.97	1.66	1.82
118 nM	102 nM	FC(F)c1nc2ccccc2n1-c1nc(N2CCOCC2)nc(N2CCOCC2)n1 [ZSTK474] + Cc1nc(Nc2ncc(C(=O)Nc3c(C)cccc3Cl)s2)cc(N2CCN(CCO)CC2)n1 [dasatinib]	0.00535	0.0709	0.00787	0.0549	0.0686	0.159	0.0415	0.115	194 nM	1090 nM	169 nM	420 nM	44.5 nM	328 nM	1.61	1.45	1.73	2.35	1.61	1.99	1.37	1.97
29.5 nM	267 nM	COc1cc2nccc(Oc3ccc(NC(=O)C4(C(=O)Nc5ccc(F)cc5)CC4)cc3)c2cc1OC [XL-184 free base (Cabozantinib)] + Cc1nc(Nc2ncc(C(=O)Nc3c(C)cccc3Cl)s2)cc(N2CCN(CCO)CC2)n1 [dasatinib]	0.25	0.0617	0.0162	0.442	0.135	0.213	0.0187	0.136	1840 nM	8990 nM	2000 nM	915 nM	193 nM	2770 nM	2.2	1.6	2.75	3.34	2.07	2.07	1.76	2.33
264 nM	1200 nM	CC(=O)Nc1ccc(NC(=S)NC(=O)c2ccc(C(C)(C)C)cc2)cc1 [Tenovin-1] + Cc1nc(Nc2ncc(C(=O)Nc3c(C)cccc3Cl)s2)cc(N2CCN(CCO)CC2)n1 [dasatinib]	0.00416	0.385	0.0071	0.0745	0.125	0.656	0.498	0.342	825 nM	854 nM	554 nM	> 10000 nM	> 10000 nM	2840 nM	1.53	1.95	3	2.71	1.91	2.47	2.19	2.2
